Reference: patent publication US20130225611A1, “Compositions and Methods for Reducing Cancer Cell Proliferation and Modulating Importin-Beta Function” (THE REGENTS OF THE UNIVERSITY OF CALIFORNIA, priority 2011, published 2013)

Legend:
[1] = target: T1, RanGTP/importin-β interaction (Homo sapiens, UniProt Q14974); test: RanGTP protection assay (RanGAP-stimulated hydrolysis); type: biochemical; details: 50 μM importazole
T1 construct: made in house; host or cells: E. coli: BL21 (importin-β), SG13 (Ran)
Method: For RanGTP protection assays, all steps were performed in buffer containing 50 mM HEPES pH 7.6 with 2.5 mM MgCl2. Loading the Ran with GTP: 40 nM Biotin labeled RCC1 was bound to streptavidin agarose resin for 30 min rotating at 4° C. The Biotin labeled RCC1 was a gift of D. Halpin. The beads were washed with fresh buffer to remove any free RCC1, and 16 μM nucleotide free Ran and 51 μM GTPγP^32 were added and Ran was allowed to load for 30 min at room temperature. The beads were then removed using a spin column, and the remaining supernatant was filtered through a Sephadex G-50 column to remove free GTPγP^32. The loaded Ran was then diluted to 1.6 μM for further use. Performing the assay: All reactions were performed in a final volume of 200 μL at and in buffer containing 50 mM HEPES pH 7.6 with 2.5 mM MgCl2. Importin-β was pre-incubated with either 0.5% DMSO or 50 μM importazole in 0.5% DMSO and 100 nM RanGTPγP^32 at room temperature. 1 μM RanGAP was added to start each reaction, and the reaction was allowed to proceed for 5 min before the reaction was stopped using 1 ml of a solution containing 7% charcoal, 10% ethanol, 0.1 M HCl, and 10 mM KH2PO4. The resulting solution was spun at 10,000 RPM for 2 min in a tabletop centrifuge to pellet the charcoal, and the resulting supernatant was removed and counted for three min per sample in a liquid scintillation counter.

[2] = target: T2, interaction between RanGTP and importin-β (Homo sapiens, UniProt Q14974); test: CFP-Ran/YFP-importin-β FRET assay; type: binding; details: spectrofluorimeter retest
T2 construct: made in house; host or cells: BL21 cells (E. coli)
Method: A reverse chemical genetic high-throughput screen (HTS) was performed to identify compounds that affect the interaction between RanGTP and importin-β using a fluorescence resonance energy transfer (FRET)-based assay with cyan fluorescent protein (CFP)-tagged Ran and yellow fluorescent protein (YFP)-tagged importin-β. These proteins bind one another only when CFP-Ran is guanosine triphosphate (GTP)-bound, which can be detected by changes in FRET (FIG. 1A and FIG. 1B). When CFP-Ran is incubated with RCC1, GTP, and YFP-importin-β, and the mixture is excited with 435 nm fluorescence in a fluorometer, a strong FRET signal is generated, as indicated by a decrease in the fluorescence intensity at 475 nm (the emission wavelength of CFP) and an increase in the fluorescence intensity at 525 nm (the emission wavelength of YFP). No FRET signal is generated if GDP is substituted for GTP, and nucleotide-specific interaction could also be observed biochemically, as S-tagged YFP-importin-β pulls CFP-Ran out of solution only in the presence of GTP. […]
The following reaction buffer was used for all FRET assays, including the high-throughput screen: 1× phosphate buffered saline (PBS), 5% glycerol, 2 mM MgCl2, 1 mM dithiothreitol (DTT), 0.01% NP-40. […] The reaction was excited using a Fluorolog 3 spectrofluorometer with 435 nm fluorescence and the emission was read between 460 nm and 550 nm. […]

HeLa cells = test: HeLa cell viability assay (CellTiter-Glo); type: cell-based; details: Homo sapiens, treatment over a 24-hour period
Method: For HeLa cell viability assays to obtain an IC50, 10,000 actively growing HeLa cells per well were transferred to opaque white 96 well tissue culture plates at a final volume of 100 μl per well in DMEM plus 4% fetal bovine serum and 1% penicillin/streptomycin. Cells were allowed to grow at 37° C. for 24 hours. Individual wells were then treated for 12 hours with one of the following conditions: 1% DMSO, 5, 10, 20, 30, 40, 50, 60, 75, 100 μM IPZ. Following this treatment, the media was replaced and cells were treated for another 12 hours under the same conditions. The plates were then allowed to equilibrate to room temperature for 30 min, after which 100 μl of room temperature CellTiter-Glo reagent from the Promega CellTiter-Glo Luminescent Cell Viability Assay kit was added to each well. Plates were shaken for 2 min, incubated at room temperature for 10 min, then read on a luminometer. The average background signal for the plate was subtracted from the value of each individual well, and the resulting values were normalized to the signal level of the DMSO containing well.

bovine tubulin = test: pure tubulin polymerization and pelleting assay; type: biochemical; details: 25 μM bovine tubulin, 5% DMSO, pelleting, SDS PAGE
Method: Xenopus laevis egg extracts were prepared as described by Hannak et al. (2006) Nat. Protoc. 1:2305-2314. For in vitro spindle assembly, Xenopus laevis sperm DNA was added to egg extracts supplemented with rhodamine-labeled tubulin. Asters were formed by addition of 5% DMSO. DNA was stained with Hoechst dye. The formation of microtubule-based structures was assessed using epifluorescence microscopy after a 30-minute room temperature incubation. In vitro microtubule polymerization and pelleting assays were performed by incubating 25 μM bovine tubulin, 1 mM GTP, and 5% DMSO in BRB80 buffer (80 mM PIPES, 1 mM MgCl2, 1 mM EGTA, pH 6.8) at 37° C. for 30 minutes. Polymerized microtubules were pelleted through a sucrose cushion, resuspended, and analyzed by SDS PAGE.

CC(Nc1nc(N2CCCC2)nc2ccccc12)c1ccccc1 (stereo not shown) [importazole, (1-phenyl-ethyl)-(2-pyrrolidin-1-yl-quinazolin-4-yl)-amine]
effect on ability of importin-β to protect RanGTP from RanGAP-stimulated hydrolysis [1]: do not indicate that importazole disrupts the RanGTP/importin-β interaction
effect on FRET signal generated by CFP-Ran and YFP-importin-β [2]: reproducibly disrupted the FRET signal
IC50 (HeLa cells): ~22.5 µM
polymerization of pure microtubules (bovine tubulin): does not Affect Pure Microtubules
